Results: US4609640A, “Preparation having excellent absorption property” (priority 1981, dated 1986)

Details: rat, in vivo
Description: Subsequently, these samples were administered to Wistar-strain rats as shown below and quantities of Cephalothin disappeared by absorption were measured.
In the experiment, Wistar-strain male rats, weighing 250 to 300 g, were narcotized with pentobarbital (50 mg/kg) and thereafter subjected to hypoabdominal incision for a first cannulation at a position about 1.5 cm from the anus and also another cannulation at a position 5 cm above the first cannulation. Subsequently, the rectum was internally washed with about 20 ml of isotonic sodium chloride solution kept at 38° C., and each sample was circulated at a flow rate of 2 ml/minute for 5 minutes to make the concentration in the system constant. Then, 6 ml of each sample was circulated at a flow rate of 2 ml/minute, and samples each of 0.05 ml were collected at intervals of 10 minutes. Each sample was diluted and the quantity of Cephalothin disappeared was determined by UV-spectrophotometer or high-speed liquid chromatography.

In the case of pectinic acid, the “absorption of Cephalothin” value is reported as “improves remarkably absorption of Cephalothin” and the “absorption of Cephalothin under hyper tonic conditions” value is reported as “further improvement”.
